In patent US6432403B1, “Antibodies to polypeptides having prenylcysteine carboxyl methlytransferase activity or inhibiting activity” (New York University, priority 1997, dated 2002):
Entries after “also recorded” stand apart in the source; their conditions may differ.

What was measured:
[1] = target: T1, human pcCMT (Homo sapiens, UniProt O60725); test: Carboxyl methylation of Rho GTPases by COS-1 cell membranes expressing human pcCMT (S-adenosyl-L-[methyl-3H]methionine labeling, SDS-PAGE, fluorography); assay type: biochemical; settings: COS-1 membranes transfected with HL60 cDNA; read-out: ED50 for block of pcCMT activity toward Rho GTPases
T1 construct: The 3.6-kb full-length HL60 pcCMT cDNA and an 852-bp cDNA fragment comprising the ORF were subcloned into the eukaryotic expression vectors; expressed in transfected cells; host or cells: COS-1 cells (pCDM8 vector, DEAE-dextran transfection); light membranes after nitrogen cavitation
Method: (§1) FIGS. 5A and 5B show the carboxyl methylation of ras-related GTPases by COS-1 cell membranes expressing ectopic human pcCMT. In FIG. 5A, neutrophil cytosol (CS) containing a mixture of Rho family proteins complexed with Rho-GDI (lanes 2, 3, 6, 7, 10, 11) or RhoA-GDI complexes partially purified from CS (lanes 4, 8, 12) were incubated with the methyl donor S-adenosyl-L-[methyl-^3H]methionine and light membranes derived from nitrogen cavitation of human neutrophils (lanes 1-4) or COS-1 cells transiently transfected with either human pcCMT (lanes 5-8) or vector alone (lanes 9-12). In some reactions (lanes 3, 7, 11) a competitive pcCMT inhibitor, AFC, was included. Reaction products were analyzed by SDS-PAGE and fluorography. The position of carboxyl methylated […] is indicated as is the position of protein phosphatase 2a (PP2a) that is methylated on a C-terminal leucine by an enzyme unrelated to pcCMT (Lee et al, 1993). […] Carboxyl methyltransferase activity was quantitated in membranes of COS-1 cells transfected with HL60 pcCMT using prenylcysteine analogs as defined substrates (Philips et al, 1995). […]

[2] = target: T2, endogenous neutrophil pcCMT (Homo sapiens, UniProt O60725); test: Carboxyl methylation of Rho GTPases by human neutrophil membranes; assay type: biochemical; settings: stated identical to the recombinant enzyme; read-out: ED50 for endogenous neutrophil pcCMT
T2 construct: endogenous in cells; host or cells: human peripheral blood neutrophils, light membranes (nitrogen cavitation, sucrose density centrifugation)
Method: as §1

[3] = test system: GFP-Nras; test: Subcellular localization of GFP-Nras in transfected COS-1 cells (epifluorescence microscopy); assay type: cell-based; settings: 200 μM during the 24-hour transfection
Method: FIGS. 8A-8C show the effect of a pcCMT inhibitor (AFC) on the subcellular localization of Nras. In FIG. 8A, COS-1 cells were transiently transfected with GFP-Nras and observed live at 24 hours by epifluorescence microscopy to reveal both surface membrane (arrowheads) and intense perinuclear (Golgi) fluorescence. The position of the […] is marked (N). […] Bars indicate […].
Expression of Recombinant pcCMT: The 3.6-kb full-length HL60 pcCMT cDNA and an 852-bp cDNA fragment comprising the ORF were subcloned into the eukaryotic expression vectors pCDM8 and pcDNA3.1 (Invitrogen, Carlsbad, Calif.). Myc-tagged pcCMT was made by adding a sequence encoding the 10-amino acid epitope of c-Myc recognized by monoclonal antibody 9E10 to the C terminus of pcCMT using patch PCR and subcloning into pcDNA3.1. pcCMT tagged at the C terminus with GFP was generated by subcloning the pcCMT ORF into the expression vector pGFP-N3 (Clontech). For pcCMT enzymatic assays, COS-1 cells were grown in 10-cm dishes and transfected with pcCMT with DEAE-dextran as described (Aruffo et al, 1987). For fluorescence microscopy, exponentially growing COS-1, CHO, and NIH3T3 cells were plated the day prior to transfection at 50-60% confluence and transfected with 2 μg of DNA using LipofectAMINE (Life Technologies, Inc.), Gaithersburg, Md.) according to the manufacturer's instructions. […]

T1 sequence (O60725 whole entry, the tested form may be a part): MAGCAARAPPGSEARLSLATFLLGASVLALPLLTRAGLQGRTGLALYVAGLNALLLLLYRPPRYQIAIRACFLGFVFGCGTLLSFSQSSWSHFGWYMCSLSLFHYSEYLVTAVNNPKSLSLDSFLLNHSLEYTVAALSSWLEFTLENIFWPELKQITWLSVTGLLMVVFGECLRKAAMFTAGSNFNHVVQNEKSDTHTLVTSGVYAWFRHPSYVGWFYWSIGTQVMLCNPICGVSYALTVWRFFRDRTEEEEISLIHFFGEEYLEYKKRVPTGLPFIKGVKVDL
T2 sequence (O60725 whole entry): as the sequence (O60725 whole entry, the tested form may be a part) above

EC50 [1]: 10 µM
EC50 [2]: 10 µM
SMILES: CC(=O)N[C@@H](CSC/C=C(\C)CC/C=C(\C)CCC=C(C)C)C(=O)O [AFC, N-acetyl-S-trans,trans-farnesyl-L-cysteine]
Effect on membrane localization of GFP-Nras [3]: blocked; also recorded: predominantly cytosolic localization
